Experimental data published in patent publication US4260607A, “Cephalosporin esters” (Takeda Chemical Industries, Ltd., priority 1976, dated 1981).
Converted amounts (≈) assume the structure as drawn. Where a name gives a salt, the structure may show the parent alone.

How the values were obtained:
[1] = tested on: S. aureus 1840; assay: MIC, S. aureus 1840; format: cell-based; conditions: unit assumed
[2] = tested on: E. coli NIHJ JC-2; assay: MIC, E. coli NIHJ JC-2; format: cell-based; conditions: unit assumed
[3] = tested on: K. pneumoniae DT; assay: MIC, K. pneumoniae DT; format: cell-based; conditions: unit assumed
[4] = tested on: P. vulgaris Eb. 58; assay: MIC, P. vulgaris Eb. 58; format: cell-based; conditions: unit assumed
[5] = tested on: E. coli 0-111; assay: MIC, E. coli 0-111; format: cell-based; conditions: unit assumed
[6] = tested on: S. aureus 209P; assay: MIC, S. aureus 209P; format: cell-based; conditions: unit assumed
[7] = in vivo, po; for Blood-level in rat, 0.5 hours: 30 min; for Blood-level in rat, 1 hour: 60 min; for Blood-level in rat, 2 hours: 120 min; for Hydrolysis of 4-position ester after absorption in blood: rat

SMILES | MIC [1] [µg/mL] | MIC [2] [µg/mL] | MIC [3] [µg/mL] | MIC [4] [µg/mL] | MIC [5] [µg/mL] | MIC [6] [µg/mL] | Blood-level in rat, 0.5 hours ([7]; 100 mg/kg) [meg/ml] | Blood-level in rat, 1 hour ([7]; 100 mg/kg) [meg/ml] | Blood-level in rat, 2 hours ([7]; 100 mg/kg) [meg/ml] | Blood-level in rat, 4 hours ([7]; 100 mg/kg, 240 min) [meg/ml] | Hydrolysis of 4-position ester after absorption in blood [7]
CC1=C(C(=O)O)N2C(=O)[C@@H](NC(=O)[C@H](N)c3ccccc3)[C@H]2SC1 [Cephalexin, reference compound] | 12.5 (≈ 36 µM) | 12.5 (≈ 36 µM) | 6.25 (≈ 18 µM) | 12.5 (≈ 36 µM) | 12.5 (≈ 36 µM) |  |  |  |  |  | 
Cc1nnc(SCC2=C(C(=O)O)N3C(=O)[C@@H](NC(=O)Cc4csc(=N)[nH]4)[C@H]3SC2)s1 [Compound (A)] | 0.78 (≈ 1.61 µM) | 1.56 (≈ 3.22 µM) | 0.39 (≈ 0.805 µM) | 0.78 (≈ 1.61 µM) | 0.39 (≈ 0.805 µM) | 0.39 (≈ 0.805 µM) |  |  |  |  | 
Cc1nnc(SCC2=C(C(=O)OCOC(=O)C(C)(C)C)N3C(=O)[C@@H](NC(=O)Cc4csc(=N)[nH]4)[C@H]3SC2)s1 [Example 1, 7β-(2-imino-4-thiazolin-4-yl)acetamido-3-(5-methyl-1,3,4-thiadizolyl-2-yl)thiomethyl-3-cephem-4-pivaloyloxymethyl carboxylate hydrochloric acid salt] |  |  |  |  |  |  | 31.8 | 29.3 | 22.0 | 8.7 | hydrolyzed at 4-position carboxylic acid ester after being absorbed in blood
CCOC(=O)OC(C)OC(=O)C1=C(CSc2nnc(C)s2)CS[C@@H]2[C@H](NC(=O)Cc3csc(=N)[nH]3)C(=O)N12 (some centres unmarked) [Example 2] |  |  |  |  |  |  | 32.4 | 28.3 | 21.0 |  | hydrolyzed at 4-position carboxylic acid ester after being absorbed in blood
